The assay concerns the target T1, Polyphenol oxidase 1 (White button mushroom, UniProt Q00024).
T1 sequence (Q00024 whole entry): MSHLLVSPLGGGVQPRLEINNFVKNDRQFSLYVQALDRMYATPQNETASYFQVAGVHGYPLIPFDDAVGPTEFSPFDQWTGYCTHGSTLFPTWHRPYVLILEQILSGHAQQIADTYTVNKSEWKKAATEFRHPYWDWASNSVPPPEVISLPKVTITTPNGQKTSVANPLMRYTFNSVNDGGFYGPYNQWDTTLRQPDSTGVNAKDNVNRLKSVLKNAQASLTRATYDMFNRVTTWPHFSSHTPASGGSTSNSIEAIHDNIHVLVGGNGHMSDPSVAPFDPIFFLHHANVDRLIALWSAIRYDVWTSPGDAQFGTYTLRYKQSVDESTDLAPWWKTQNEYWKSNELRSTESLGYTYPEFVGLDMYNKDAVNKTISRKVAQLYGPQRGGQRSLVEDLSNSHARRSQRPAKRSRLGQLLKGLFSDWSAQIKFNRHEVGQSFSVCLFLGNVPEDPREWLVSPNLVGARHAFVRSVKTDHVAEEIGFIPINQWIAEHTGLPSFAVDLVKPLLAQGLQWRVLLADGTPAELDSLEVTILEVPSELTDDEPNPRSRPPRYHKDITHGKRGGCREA
Description: MT Kinetic Assay. The note with it: pH 6.8. The procedure:
The assay was performed as previously described with slight modifications [Chen et al., J. Agric. Food Chem., 50:4108-12]. The reaction medium was 1 mL in 50 mM phosphate buffer (pH 6.8). The final concentration of mushroom tyrosinase was 26.07 μg/mL for cresolase activity and 6.52 μg/mL for catecholase activity. Freshly prepared enzyme, substrate, and dithiocarbamates I and II were used in this work. The reaction was carried out under constant temperatures of 27 and 37°C. Substrate addition followed incubation of the enzyme with different concentrations of synthetic inhibitors.

Where “and” joins values, the source holds several entries; their conditions need not be identical. Equal entries are not always repeated. Structures can show the parent of a compound that is named as a salt.

A word on the Ki: it is the dissociation constant of the complex between target and ligand, obtained from inhibition or displacement.

On to `S=C(S)NCc1ccccc1`, for which the Ki is 14.1 µM and 9.4 µM (27 °C); 5.9 µM and 5.7 µM (37 °C).
Turning to `S=C(S)NCc1ccc(CNC(=S)S)cc1` [p-Xylidine-bis(dithiocarbamate) sodium salt (II)], the Ki was 0.64 µM and 0.29 µM (27 °C); 0.95 µM and 1.05 µM (37 °C).

Values taken from BindingDB's records for doi:10.1080/14756360903179351 (University of Tehran, 2010).
